Assay results reported in patent US6391284B1, “Nonalcoholic pharmaceutical preparations from formulations including alcohol and process for the preparation thereof” (priority 2001, dated 2002).

Test: Solubility in water
Assay type: physicochemical

CC1=C(/C=C/C(C)=C/C=C/C(C)=C\C(=O)O)C(C)(C)CCC1 [cis-retinoic acid]
water solubility: extremely water insoluble
